Source: US11000033B2, “Ketone or oxime compound, and herbicide” (NISSAN CHEMICAL CORPORATION, priority 2014, dated 2021)

Key:
Format in all cases: in vivo
[1] = test system: Stellaria media; assay: Test Example 4: herbicidal effect by soil treatment (symbol P)
Outline: (§1)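 Seeds were sown in sterilized diluvial soil, covered with about 1.5 cm of soil, and the soil surface was sprayed with a water-diluted emulsion of the compound at a predetermined rate. Plants grew in a greenhouse at 25° C. to 30° C.; effects were scored visually 3 weeks after application.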

[2] = test system: Apera spica-venti; assay: Test Example 4: herbicidal effect by soil treatment (symbol L)
Outline: as §1

[3] = test system: Echinochloa crus-galli var. crus-galli; assay: Test Example 5: herbicidal effect by foliage application, plastic box (symbol H); details: 320 g/ha, 3 weeks after application
Outline: (§2)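 Leaf-applied emulsion, water-diluted to a preset herbicide dose, on two-week-old seedlings raised in a 25° C. to 30° C. greenhouse; injury rated at 3 weeks using earlier criteria.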

[4] = test system: rice; assay: Test Example 4: effect on crop by soil treatment (symbol b); details: for b: directly sowed rice plant, effect on crop grade: application herbicide amount 320 g/ha
Outline: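 Crop seed is sown in spots together with several weed species in a box of sterilized diluvial soil. It is covered by about 1.5 cm of soil and kept in a greenhouse held between 25° C. and 30° C.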

[5] = test system: Scirpus juncoides; assay: Test Example 2: herbicidal activity, application during weed generation in submerged conditions (symbol B); details: Table 23; application herbicide amount 320 g/ha; grade 0-5 by criteria of Test Example 1
Outline: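 Weeds emerging under flooded conditions were treated with compound formulated as an emulsion and diluted with water to the intended herbicide amount, poured onto the surface of 4 cm standing water. Seeds had been co-sown in alluvial soil; plants grew at 25° C. to 30° C. and were assessed after 3 weeks.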

[6] = test system: Abutilon theophrasti; assay: Test Example 4: herbicidal effect by soil treatment (symbol M)
Outline: as §1

[7] = test system: Alopecurus myosuroides; assay: Test Example 5: herbicidal effect by foliage application, plastic box (symbol J); details: 320 g/ha, 3 weeks after application
Outline: as §2

[8] = test system: corn; assay: Test Example 5: effect on crop by foliage application, plastic box (symbol c); details: 320 g/ha, 3 weeks after application
Outline: (§3)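 Crop seed is sown alongside grass and broadleaf weed species in spots in sterilized diluvial soil, then covered to a depth of about 1.5 cm. Plants grow in a greenhouse kept at 25° C. to 30° C.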

[9] = test system: transplanted rice plant; assay: Test Example 1: effect on crop, application before weed generation in submerged conditions (symbol a); details: application herbicide amount 320 g/ha
Outline: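 Rice at 2.5 leaf stage transplanted into submerged soil (4 cm depth) sown with three weed species; herbicide applied before weed emergence.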

[10] = test system: soybean; assay: Test Example 5: effect on crop by foliage application, plastic box (symbol d); details: 320 g/ha, 3 weeks after application
Outline: as §3

[11] = test system: beet; assay: Test Example 5: effect on crop by foliage application, plastic box (symbol f); details: 320 g/ha, 3 weeks after application
Outline: as §3

[12] = test system: corn; assay: Test Example 4: effect on crop by soil treatment (symbol c); details: for c: corn, effect on crop grade: application herbicide amount 320 g/ha
Outline: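 Diluvial soil (sterilized) in boxes; seeds placed spot-wise alongside weed species; ~1.5 cm covering soil. Greenhouse, 25–30° C.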

[13] = test system: Echinochloa crus-galli var. crus-galli; assay: Test Example 4: herbicidal effect by soil treatment (symbol H)
Outline: as §1

[14] = test system: Cyperus difformis; assay: Test Example 3: herbicidal effect by foliage application, Wagner pot (symbol E); details: application herbicide amount 320 g/ha
Outline: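 Alluvial soil was flooded to a depth of 0.1–0.5 cm, seeded with the weeds and rice, and kept in a greenhouse at 25–30 °C. After 14 days of growth, the foliage received a small-sprayer application of emulsion diluted to the intended rate; injury was rated at 3 weeks.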

[15] = application herbicide amount 320 g/ha

Structure (SMILES) | P: Stellaria media, herbicidal effect grade [1, 15] | L: Apera spica-venti, herbicidal effect grade [2, 15] | H: Echinochloa crus-galli var. crus-galli, herbicidal effect grade [3] | b: directly sowed rice plant, effect on crop grade [4] | Herbicidal effect grade, B: Scirpus juncoides [5] | M: Abutilon theophrasti, herbicidal effect grade [6, 15] | J: Alopecurus myosuroides, herbicidal effect grade [7] | c: corn, effect on crop grade [8] | Effect grade on crop, a: transplanted rice plant [9] | d: soybean, effect on crop grade [10] | f: beet, effect on crop grade [11] | c: corn, effect on crop grade [12] | H: Echinochloa crus-galli var. crus-galli, herbicidal effect grade [13, 15] | herbicidal effect on E, grade 0-5 [14] | P: Stellaria media, herbicidal effect grade ([1]; 320 g/ha) | L: Apera spica-venti, herbicidal effect grade ([2]; 320 g/ha) | b: directly sowed rice plant, effect grade on crop ([4]; 320 g/ha) | M: Abutilon theophrasti, herbicidal effect grade ([6]; 320 g/ha) | c: corn, effect grade on crop ([12]; 320 g/ha) | H: Echinochloa crus-galli var. crus-galli, herbicidal effect grade ([13]; 320 g/ha)
CON=C(C)CC1CC(O)=C(c2c(C)cc(C)cc2Br)C1=O (stereo not drawn) [6-038] | 0 (Herbicidal ratio of 5% or lower (almost no effect)) | 5 (Herbicidal ratio of 90% or more (almost completely withered)) | 5 (Herbicidal ratio of 90% or more (almost completely withered)) | 5 (Herbicidal ratio of 90% or more (almost completely withered)) | 4 (Herbicidal ratio of 70% or higher and lower than 90%) | 5 (Herbicidal ratio of 90% or more (almost completely withered)) | 5 (Herbicidal ratio of 90% or more (almost completely withered)) | 5 (Herbicidal ratio of 90% or more (almost completely withered)) | 5 (Herbicidal ratio of 90% or more (almost completely withered)) | 4 (Herbicidal ratio of 70% or higher and lower than 90%) | 0 (Herbicidal ratio of 5% or lower (almost no effect)) | 5 (Herbicidal ratio of 90% or more (almost completely withered)) | 5 (Herbicidal ratio of 90% or more (almost completely withered)) | 5 (Herbicidal ratio of 90% or more (almost completely withered)) |  |  |  |  |  | 
CCOC(=O)C(C(=O)c1ccccc1)C1CC(O)=C(c2c(C)cc(C)cc2C)C1=O (stereo not drawn) [2-008] | 0 (Herbicidal ratio of 5% or lower (almost no effect)) | 0 (Herbicidal ratio of 5% or lower (almost no effect)) | 3 (Herbicidal ratio of 40% or higher and lower than 70%) | 0 (Herbicidal ratio of 5% or lower (almost no effect)) | 0 (Herbicidal ratio of 5% or lower (almost no effect)) | 0 (Herbicidal ratio of 5% or lower (almost no effect)) | 3 (Herbicidal ratio of 40% or higher and lower than 70%) | 1 (Herbicidal ratio of 5% or higher and lower than 20%) | 0 (Herbicidal ratio of 5% or lower (almost no effect)) | 1 (Herbicidal ratio of 5% or higher and lower than 20%) | 0 (Herbicidal ratio of 5% or lower (almost no effect)) | 0 (Herbicidal ratio of 5% or lower (almost no effect)) | 0 (Herbicidal ratio of 5% or lower (almost no effect)) | 0 (Herbicidal ratio of 5% or lower (almost no effect)) |  |  |  |  |  | 
CCc1cc(Br)cc(C)c1C1=C(O)CC(C(C(=O)OC)C(C)=NOC)C1=O (stereo not drawn) [6-002] | 0 (Herbicidal ratio of 5% or lower (almost no effect)) | 4 (Herbicidal ratio of 70% or higher and lower than 90%) | 5 (Herbicidal ratio of 90% or more (almost completely withered)) | 5 (Herbicidal ratio of 90% or more (almost completely withered)) | 0 (Herbicidal ratio of 5% or lower (almost no effect)) | 0 (Herbicidal ratio of 5% or lower (almost no effect)) | 5 (Herbicidal ratio of 90% or more (almost completely withered)) | 5 (Herbicidal ratio of 90% or more (almost completely withered)) | 3 (Herbicidal ratio of 40% or higher and lower than 70%) | 0 (Herbicidal ratio of 5% or lower (almost no effect)) | 0 (Herbicidal ratio of 5% or lower (almost no effect)) | 0 (Herbicidal ratio of 5% or lower (almost no effect)) | 2 (Herbicidal ratio of 20% or higher and lower than 40%) | 0 (Herbicidal ratio of 5% or lower (almost no effect)) |  |  |  |  |  | 
COC(=O)C(C(C)=O)C1CC(O)=C(c2c(C)cc(C)cc2C)C1=O (stereo not drawn) [2-003] |  |  | 5 (Herbicidal ratio of 90% or more (almost completely withered)) |  | 0 (Herbicidal ratio of 5% or lower (almost no effect)) |  | 5 (Herbicidal ratio of 90% or more (almost completely withered)) | 3 (Herbicidal ratio of 40% or higher and lower than 70%) | 0 (Herbicidal ratio of 5% or lower (almost no effect)) | 0 (Herbicidal ratio of 5% or lower (almost no effect)) | 0 (Herbicidal ratio of 5% or lower (almost no effect)) |  |  | 4 (Herbicidal ratio of 70% or higher and lower than 90%) | 0 (Herbicidal ratio of 5% or lower (almost no effect)) | 5 (Herbicidal ratio of 90% or more (almost completely withered)) | 2 (Herbicidal ratio of 20% or higher and lower than 40%) | 0 (Herbicidal ratio of 5% or lower (almost no effect)) | 0 (Herbicidal ratio of 5% or lower (almost no effect)) | 0 (Herbicidal ratio of 5% or lower (almost no effect))
C=Cc1cc(C)c(C2=C(O)CC(CC(C)=NOC)C2=O)c(C)c1 (mixture of isomers) [6-031] | 0 (Herbicidal ratio of 5% or lower (almost no effect)) | 0 (Herbicidal ratio of 5% or lower (almost no effect)) | 5 (Herbicidal ratio of 90% or more (almost completely withered)) | 0 (Herbicidal ratio of 5% or lower (almost no effect)) | 0 (Herbicidal ratio of 5% or lower (almost no effect)) | 0 (Herbicidal ratio of 5% or lower (almost no effect)) | 5 (Herbicidal ratio of 90% or more (almost completely withered)) | 4 (Herbicidal ratio of 70% or higher and lower than 90%) | 1 (Herbicidal ratio of 5% or higher and lower than 20%) | 0 (Herbicidal ratio of 5% or lower (almost no effect)) | 0 (Herbicidal ratio of 5% or lower (almost no effect)) | 0 (Herbicidal ratio of 5% or lower (almost no effect)) | 0 (Herbicidal ratio of 5% or lower (almost no effect)) | 2 (Herbicidal ratio of 20% or higher and lower than 40%) |  |  |  |  |  | 
CC#Cc1cc(C)c(C2=C(O)CC(CC(C)=NOC)C2=O)c(C)c1 (mixture of isomers) [6-009] | 4 (Herbicidal ratio of 70% or higher and lower than 90%) | 5 (Herbicidal ratio of 90% or more (almost completely withered)) | 5 (Herbicidal ratio of 90% or more (almost completely withered)) | 5 (Herbicidal ratio of 90% or more (almost completely withered)) | 0 (Herbicidal ratio of 5% or lower (almost no effect)) | 5 (Herbicidal ratio of 90% or more (almost completely withered)) | 5 (Herbicidal ratio of 90% or more (almost completely withered)) | 5 (Herbicidal ratio of 90% or more (almost completely withered)) | 3 (Herbicidal ratio of 40% or higher and lower than 70%) | 3 (Herbicidal ratio of 40% or higher and lower than 70%) | 2 (Herbicidal ratio of 20% or higher and lower than 40%) | 5 (Herbicidal ratio of 90% or more (almost completely withered)) | 5 (Herbicidal ratio of 90% or more (almost completely withered)) | 0 (Herbicidal ratio of 5% or lower (almost no effect)) |  |  |  |  |  | 
